In patent publication US20120258038A1, “USES OF APOPTOTIC CELL-TARGETING PEPTIDES, LABEL SUBSTANCES AND LIPOSOMES CONTAINING A THERAPEUTIC AGENT FOR PREVENTING, TREATING OR THERAPEUTICALLY DIAGNOSING APOPTOSIS-RELATED DISEASES” (Kyungpook National University Industry-Academic Cooperation …, priority 2009, published 2012):

B1: annexin V: protein having a molecular weight of 36 kDa, binds to phosphatidylserine with strong affinity (protein, UniProt P08758 2-320, looked up)
Annexin A5: AQVLRGTVTDFPGFDERADAETLRKAMKGLGTDEESILTLLTSRSNAQRQEISAAFKTLFGRDLLDDLKSELTGKFEKLIVALMKPSRLYDAYELKHALKGAGTNEKVLTEIIASRTPEELRAIKQVYEEEYGSSLEDDVVGDTSGYYQRMLVVLLQANRDPDAGIDEAQVEQDAQALFQAGELKWGTDEEKFITIFGTRSVSHLRKVFDKYMTISGFQIEETIDRETSGNLEQLLLAVVKSIRSIPAYLAETLYYAMKGAGTDDHTLIRVMVSRSEIDLFNIRKEFRKNFATSLYSMIKGDTSGDYKKALLLLCGEDD

How the values were obtained:
apoptotic A549 cells = test: Competitive inhibition of binding to apoptotic cells by annexin V pre-treatment; format: cell-based, human
Experimental: In order to further investigate the binding properties of the inventive peptide (ApoPep-1) to apoptotic cells, competitive inhibition by annexin V was measured. For this, first, apoptotic A549 cells were pretreated with annexin V, not labeled with fluorescence, at concentrations of 0, 200 and 1000 μM. Then, after the cells were reacted with fluorescence-labeled annexin V under the same condition as described in Example <2-1>, the binding of the cells was observed under a fluorescence microscope.
Meanwhile, apoptotic A549 cells were pre-treated with annexin V, not labeled with fluorescence, at a concentration of 1000 μM. Then, after the cells were reacted with fluorescence-labeled peptide under the same condition as described in Example <2-1>, the binding of the cells was observed under a fluorescence microscope.

A549 cells = test: FACS analysis of binding to apoptotic cells; format: cell-based, human; details: for percentage of cells bound/stained, early stage of apoptosis (fraction Q4) / percentage of cells bound/stained, later stage of apoptosis (fraction Q2): A549 cells treated with 50 μM etoposide for 15 hours, PI co-staining
Experimental: As another way of confirming the binding of the inventive peptide to apoptotic cells, apoptotic cells were treated with the inventive peptide labeled with fluorescein, and the binding was confirmed through FACS analysis. First, apoptosis was induced by treating A549 cells with 50 μM etoposide for 6 to 15 hours. The apoptotic cells or normal cells were reacted with the inventive ApoPep-1 peptide(5 μM) or a control peptide at the same concentration, labeled with fluorescein, at 4° C. for 1 hour. Meanwhile, the cells were reacted with fluorescein-labeled annexin V at room temperature for 15 minutes. After simultaneously staining the cells with propodium iodide (PI), followed by washing with PBS, FACS analysis was performed using a FACS instrument (Becton Dickinson).

[1] = system: etoposide-treated apoptotic cells (A549, H460, HeLa, L132, RAW); test: Microscopic observation of binding of the peptide to apoptotic cells; format: cell-based; details: for labeling of etoposide-treated apoptotic cells: etoposide 50 μM; for labeling of etoposide-treated apoptotic cells / labeling of normal cells not treated with etoposide: fluorescence microscopy, fluorescein-labeled peptide 10 μM, alexa 594-labeled annexin V; for labeling of normal cells not treated with etoposide: 4° C., 1 hour
Experimental: Cells were cultured in a chamber slide (Nalgen Nunc), and treated with etoposide (Sigma) at a concentration of 50 μM for a given period of time to induce apoptosis (A549 and HeLa cells: for 15 hours, H460 cells: 24 hours, L132 cells: 3 hours, and RAW cells: 6 hours). The cells were cultured in RMPI-1640 medium (A549 and H460 cells) or DMEM medium (HeLa, L132 and RAW cells) containing antibiotics (penicillin and streptomycin) and 10% FBS. Meanwhile, all the cells were subcultured every 3 or 4 days. The apoptosis-induced apoptotic cells were washed with PBS, and blocked with 1% BSA at 37° C. for 30 minutes. Then, the cells were reacted with 10 μM of the peptide labeled with fluorescein, at 4° C. for 1 hour. After being washed, the cells were reacted with an annexin V reaction buffer solution containing alexa 594 (fluorescent reagent)-labeled annexin V (Molecular Probes) at room temperature for 15 minutes. The cells were washed with PBS, and then fixed with 4% paraformaldehyde for 5 minutes. Then, after counterstaining using the nuclear stain 4′,6-diamidino-2-phenylindole (DAPI), followed by treatment with a mounting solution (Molecular Probes), images of the cells were obtained under a fluorescence microscope (Zeiss).

| Molecule | binding of the peptide after pre-treatment with annexin V (apoptotic A549 cells; annexin V not labeled with fluorescence, 1000 μM) | binding to normal cells (A549 cells; A549 cells not treated with etoposide, 5 μM, fluorescein-labeled) | percentage of cells bound/stained, early stage of apoptosis (fraction Q4) (A549 cells) [%] | percentage of cells bound/stained, later stage of apoptosis (fraction Q2) (A549 cells) [%] | labeling of etoposide-treated apoptotic cells [1] | location of binding compared with annexin V (merged images) ([1]; etoposide-treated apoptotic cells) | labeling of normal cells not treated with etoposide [1] | fluorescence of fluorescence-labeled annexin V after pre-treatment with annexin V not labeled with fluorescence (apoptotic A549 cells; pre-treatment 0, 200 and 1000 μM, high concentration) |
| --- | --- | --- | --- | --- | --- | --- | --- | --- |
| CQRPPR (Apoptotic cell-targeting peptide, ApoPep-1) | not inhibited | almost nonexistent | 90.3 | 7.2 | labeling was observed | at the same locations | no labeling was observed |  |
| B1 |  |  | 64.3 | 9.4 | labeling was observed |  | no labeling was observed | significantly decreased |
